US20090253669A1, “Substituted Sulfonamide Compounds” (GRUENENTHAL GmbH, priority 2008, published 2009)

Key:
[1] = target: T1, human B1R receptor (hB1R) (Homo sapiens, UniProt P46663); assay: FLIPR Ca2+ assay on hB1R-transfected CHO K1 cells, antagonistic action; format: cell-based; conditions: agonist Lys-Des-Arg9-bradykinin 0.5 nM, % of maximum achievable inhibition; for inhibition at 10 µM: CHO-K1, 10 μM test substance, read-out: hB1R [10 μM] % inhibition
T1 construct: host or cells: CHO K1 cells
T1 sequence (P46663 1-353): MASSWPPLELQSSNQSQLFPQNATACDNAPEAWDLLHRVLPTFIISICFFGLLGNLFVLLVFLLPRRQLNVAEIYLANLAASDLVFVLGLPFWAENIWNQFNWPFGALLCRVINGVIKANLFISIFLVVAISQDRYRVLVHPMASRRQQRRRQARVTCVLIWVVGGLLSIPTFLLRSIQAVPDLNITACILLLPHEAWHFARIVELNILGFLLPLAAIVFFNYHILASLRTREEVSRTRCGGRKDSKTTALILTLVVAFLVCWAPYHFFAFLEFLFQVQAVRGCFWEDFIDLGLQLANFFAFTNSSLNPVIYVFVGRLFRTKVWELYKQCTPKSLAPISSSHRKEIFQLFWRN

[2] = target: T2, B1R receptor of the rat (rB1R) (Rattus norvegicus, UniProt P97583); assay: FLIPR Ca2+ assay on rB1R-transfected CHO K1 cells, antagonistic action; format: cell-based; conditions: agonist Des-Arg9-bradykinin 100 nM, % of maximum achievable inhibition; for inhibition at 10 µM: CHO-K1, 10 μM test substance, read-out: rB1R [10 μM] % inhibition
T2 construct: host or cells: CHO K1 cells
T2 sequence (P97583 1-337): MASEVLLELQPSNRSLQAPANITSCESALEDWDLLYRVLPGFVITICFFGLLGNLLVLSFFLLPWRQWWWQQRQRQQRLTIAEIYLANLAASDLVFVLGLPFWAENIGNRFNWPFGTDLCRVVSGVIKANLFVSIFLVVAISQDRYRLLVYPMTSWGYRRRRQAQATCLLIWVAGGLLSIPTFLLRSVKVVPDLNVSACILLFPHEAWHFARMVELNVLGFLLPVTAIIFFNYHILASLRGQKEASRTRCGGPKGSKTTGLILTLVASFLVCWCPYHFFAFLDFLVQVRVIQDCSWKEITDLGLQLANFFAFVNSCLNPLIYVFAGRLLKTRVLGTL

SMILES	inhibition at 10 µM [1] [%]	inhibition at 10 µM [2] [%]	hB1R [10 μM] % inhibition ([1]; 10 μM test substance) [%]	rB1R [10 μM] % inhibition ([2]; 10 μM test substance) [%]
COc1cc(C)c(S(=O)(=O)N2CCCC(COCC(=O)N(C)CC3CCC(CCc4ccccc4)(N4CCN(C)CC4)CC3)C2)c(C)c1 (centres unmarked) [Compound 182, 2-((1-(4-methoxy-2,6-dimethylphenylsulfonyl)piperidin-3-yl)methoxy)-N-methyl-N-((4-(4-methylpiperazin-1-yl)-4-phenethylcyclohexyl)methyl)acetamide]	106	67		
CN(CCCC1CCC(Cc2ccccc2)(N2CCCC2)CC1)C(=O)CC1CCCCN1S(=O)(=O)c1cccc(C(F)(F)F)c1 (centres unmarked) [Compound 93, N-(3-(4-benzyl-4-(pyrrolidin-1-yl)cyclohexyl)propyl)-N-methyl-2-(1-(3-(trifluoromethyl)phenylsulfonyl)piperidin-2-yl)acetamide]	98	94		
COc1cc(C)c(S(=O)(=O)N(C)CCOCC(=O)N2CCC(Cc3ccccc3)(N3CCN(C)CC3)C2)c(C)c1 (centres unmarked) [Compound 197, N-(2-(2-(3-benzyl-3-(4-methylpiperazin-1-yl)pyrrolidin-1-yl)-2-oxoethoxy)ethyl)-4-methoxy-N,2,6-trimethylbenzenesulfonamide]	98	99		
COc1cc(C)c(S(=O)(=O)N2CCCCC2COCC(=O)N(C)CCCC2CCC(c3ccccc3)(N3CCC3)CC2)c(C)c1 (centres unmarked) [Compound 205, N-(3-(4-(azetidin-1-yl)-4-phenylcyclohexyl)propyl)-2-((1-(4-methoxy-2,6-dimethylphenylsulfonyl)piperidin-2-yl)methoxy)-N-methylacetamide]	100	100		
CN1CCN(C2(CCc3ccccc3)CCC(CN(C)C(=O)COCC3CCCCN3S(=O)(=O)c3c(Cl)cc(Cl)cc3Cl)CC2)CC1 (centres unmarked) [Compound 161, N-methyl-N-((4-(4-methylpiperazin-1-yl)-4-phenethylcyclohexyl)methyl)-2-((1-(2,4,6-trichlorophenylsulfonyl)piperidin-2-yl)methoxy)acetamide]	101	98		
CN1CCN(C2(Cc3ccccc3)CCC(CN(C)C(=O)COCCN(C)S(=O)(=O)c3c(Cl)cc(Cl)cc3Cl)CC2)CC1 (centres unmarked) [Compound 186, N-((4-benzyl-4-(4-methylpiperazin-1-yl)cyclohexyl)methyl)-N-methyl-2-(2-(2,4,6-trichloro-N-methylphenylsulfonamido)ethoxy)acetamide]	97	64		
COc1cc(C)c(S(=O)(=O)N2CCC(OCC(=O)NC3CCC(c4ccccc4)(N4CCCC4)CC3)C2)c(C)c1 (centres unmarked) [Compound 153, 2-(1-(4-methoxy-2,6-dimethylphenylsulfonyl)pyrrolidin-3-yloxy)-N-(4-phenyl-4-(pyrrolidin-1-yl)cyclohexyl)acetamide]	97	102		
Cc1cc(S(=O)(=O)N2CCCCC2CCC(=O)N2CCC(CCc3ccccc3)(N(C)C)CC2)c(C)cc1Cl (centres unmarked) [Compound 137, 3-(1-(4-chloro-2,5-dimethylphenylsulfonyl)piperidin-2-yl)-1-(4-(dimethylamino)-4-phenethylpiperidin-1-yl)propan-1-one]	104	30		
COc1cc(C)c(S(=O)(=O)N2CCC(OCC(=O)NC3CCC(c4ccccc4)(N4CCCCC4)CC3)C2)c(C)c1 (centres unmarked) [Compound 27, 2-(1-(4-methoxy-2,6-dimethylphenylsulfonyl)pyrrolidin-3-yloxy)-N-(4-phenyl-4-(piperidin-1-yl)cyclohexyl)acetamide]	69	51		
CN(CCC1CCC(Cc2ccccc2)(N(C)C)CC1)C(=O)CC(NS(=O)(=O)c1ccc2ccccc2c1)c1ccccc1 (centres unmarked) [Compound 86, N-(2-(4-benzyl-4-(dimethylamino)cyclohexyl)ethyl)-N-methyl-3-(naphthalene-2-sulfonamido)-3-phenylpropanamide]	101	99		
CN(CCCC1CCC(CCc2ccccc2)(N2CCCC2)CC1)C(=O)CC1CCCCN1S(=O)(=O)c1cccc(C(F)(F)F)c1 (centres unmarked) [Compound 134, N-methyl-N-(3-(4-phenethyl-4-(pyrrolidin-1-yl)cyclohexyl)propyl)-2-(1-(3-(trifluoromethyl)phenylsulfonyl)piperidin-2-yl)acetamide]	102	38		
COc1cc(C)c(S(=O)(=O)N2CCCC(OCC(=O)NC3CCC(c4ccccc4)(N4CCCC4)CC3)C2)c(C)c1 (centres unmarked) [Compound 176, 2-(1-(4-methoxy-2,6-dimethylphenylsulfonyl)piperidin-3-yloxy)-N-(4-phenyl-4-(pyrrolidin-1-yl)cyclohexyl)acetamide]	89	77		
CN(CC1CCC(Cc2ccccc2)(N2CCCC2)CC1)C(=O)CC(NS(=O)(=O)c1ccc2ccccc2c1)c1ccccc1 (centres unmarked) [Compound 112, N-((4-benzyl-4-(pyrrolidin-1-yl)cyclohexyl)methyl)-N-methyl-3-(naphthalene-2-sulfonamido)-3-phenylpropanamide]	97	77		
COc1cc(C)c(S(=O)(=O)N(C)CCOCC(=O)NC2CCC(CCc3ccccc3)(N(C)C)CC2)c(C)c1C (centres unmarked) [Compound 24, N-(4-(dimethylamino)-4-phenethylcyclohexyl)-2-(2-(4-methoxy-N,2,3,6-tetramethylphenylsulfonamido)ethoxy)acetamide]	97	65		
COc1cc(C)c(S(=O)(=O)N2CCCC2COCC(=O)NC2CCC(c3ccccc3)(N3CCOCC3)CC2)c(C)c1 (centres unmarked) [Compound 160, 2-((1-(4-methoxy-2,6-dimethylphenylsulfonyl)pyrrolidin-2-yl)methoxy)-N-(4-morpholino-4-phenylcyclohexyl)acetamide]	93	98		
COc1cc(C)c(S(=O)(=O)N(C)CCOCC(=O)N(C)CCC2CCC(Cc3ccccc3)(N3CCCC3)CC2)c(C)c1 (centres unmarked) [Compound 39, N-(2-(4-benzyl-4-(pyrrolidin-1-yl)cyclohexyl)ethyl)-2-(2-(4-methoxy-N,2,6-trimethylphenylsulfonamido)ethoxy)-N-methylacetamide]	105	101		
CN(CCOCC(=O)NC1CCC(c2ccccc2)(N2CCCC2)CC1)S(=O)(=O)c1c(Cl)cc(Cl)cc1Cl (centres unmarked) [Compound 191, N-(4-phenyl-4-(pyrrolidin-1-yl)cyclohexyl)-2-(2-(2,4,6-trichloro-N-methylphenylsulfonamido)ethoxy)acetamide]	90	55		
COc1cc(C)c(S(=O)(=O)N2CCCCC2COCC(=O)N2CCC(c3cccc(F)c3)(N3CCN(C)CC3)CC2)c(C)c1 (centres unmarked) [Compound 67, 1-(4-(3-fluorophenyl)-4-(4-methylpiperazin-1-yl)piperidin-1-yl)-2-((1-(4-methoxy-2,6-dimethylphenylsulfonyl)piperidin-2-yl)methoxy)ethanone]			101	100
COc1cc(C)c(S(=O)(=O)N2CCC(OCC(=O)NC3CCC(Cc4ccccc4C)(N(C)C)CC3)C2)c(C)c1 (centres unmarked) [Compound 14, N-(4-(dimethylamino)-4-(2-methylbenzyl)cyclohexyl)-2-(1-(4-methoxy-2,6-dimethylphenylsulfonyl)pyrrolidin-3-yloxy)acetamide]	89	82		
Cc1cc(S(=O)(=O)N2CCCCC2CCC(=O)N2CCC(c3ccccc3)(N3CCN(C)CC3)CC2)c(C)cc1Cl (centres unmarked) [Compound 110, 3-(1-(4-chloro-2,5-dimethylphenylsulfonyl)piperidin-2-yl)-1-(4-(4-methylpiperazin-1-yl)-4-phenylpiperidin-1-yl)propan-1-one]	104	78		
Cc1ccccc1CC1(N(C)C)CCC(NC(=O)COCCN(C)S(=O)(=O)c2ccc(Cl)cc2Cl)CC1 (centres unmarked) [Compound 30, 2-(2-(2,4-dichloro-N-methylphenylsulfonamido)ethoxy)-N-(4-(dimethylamino)-4-(2-methylbenzyl)cyclohexyl)acetamide]	63	39		
COc1cc(C)c(S(=O)(=O)N2c3ccccc3OCC2COCC(=O)N2CCC(c3cccc(F)c3)(N3CCN(C)CC3)CC2)c(C)c1 (centres unmarked) [Compound 221, 1-(4-(3-Fluorophenyl)-4-(4-methylpiperazin-1-yl)piperidin-1-yl)-2-((4-(4-methoxy-2,6-dimethylphenylsulfonyl)-3,4-dihydro-2H-benzo[b][1,4]oxazin-3-yl)methoxy)ethanone]	99	99		
